These results are taken from US20240270809A1, “ORAL GLP RECEPTOR AGONISTS” (priority 2020, published 2024).

Positions of bridges follow the written chain, without caps; N, C: chain ends. Non-standard residues stand in square brackets, D forms with d. Residues, ends and D or L forms follow the SMILES beside them. *: point of attachment. Malonyl(2,2-Me2,histaminyl) = CC(C)(C(=O)NCCc1cnc[nH]1)C(=O)*; Ala(1H-tetrazol-5-yl) = N[C@@H](Cc1nnn[nH]1)C(=O)O; αMePhe(2-F) = C[C@](N)(Cc1ccccc1F)C(=O)O; αMeL = CC(C)C[C@](C)(N)C(=O)O; Nle = CCCC[C@H](N)C(=O)O; Aib = CC(C)(N)C(=O)O

Assay type in all cases: cell-based
The target of one experiment is T1, human GLP2 receptor (Homo sapiens, UniProt O95838).
T1 construct: expressed in transfected cells; host or cells: HEK cells, BacMam virus transduction
T1 sequence (O95838 1-553): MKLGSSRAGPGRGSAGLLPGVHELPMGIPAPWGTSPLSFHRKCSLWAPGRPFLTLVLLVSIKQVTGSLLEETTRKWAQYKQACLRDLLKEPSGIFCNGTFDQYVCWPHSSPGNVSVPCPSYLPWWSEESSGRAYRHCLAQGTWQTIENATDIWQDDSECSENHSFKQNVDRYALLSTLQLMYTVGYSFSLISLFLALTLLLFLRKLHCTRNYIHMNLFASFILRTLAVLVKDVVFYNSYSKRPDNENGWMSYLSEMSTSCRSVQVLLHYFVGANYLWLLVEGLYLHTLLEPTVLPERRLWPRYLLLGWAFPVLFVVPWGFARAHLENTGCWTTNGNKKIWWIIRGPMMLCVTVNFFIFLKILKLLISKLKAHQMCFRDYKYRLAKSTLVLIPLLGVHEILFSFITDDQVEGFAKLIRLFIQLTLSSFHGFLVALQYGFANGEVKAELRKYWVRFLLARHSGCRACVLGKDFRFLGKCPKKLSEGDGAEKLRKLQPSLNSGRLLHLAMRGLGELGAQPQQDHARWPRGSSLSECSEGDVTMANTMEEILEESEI
The experiment in a line: cAMP accumulation assay, functional agonism of human GLP2 receptor. The note with it: HEK cells infected with human GLP2 receptor BacMam virus, HTRF cAMP; for Emax: HEK293, read-out: Human GLP-2R agonist cAMP Emax; for EC50: read-out: Human GLP-2R agonist cAMP pEC50 (converted). The procedure, abridged: (§1)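 cAMP by HTRF in BacMam-transduced HEK cells (24 h infection, frozen stocks); 0.5 mM IBMX in HBSS, 45 min, 37° C.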
(In general: Changes in cAMP serve as a functional read-out for many G protein-coupled receptors.)

Another experiment concerns the target T2, mouse GLP2 receptor (Mus musculus, UniProt Q5IXF8).
T2 construct: expressed in transfected cells; host or cells: HEK cells, transient transfection with GeneJuice
T2 sequence (Q5IXF8 1-512): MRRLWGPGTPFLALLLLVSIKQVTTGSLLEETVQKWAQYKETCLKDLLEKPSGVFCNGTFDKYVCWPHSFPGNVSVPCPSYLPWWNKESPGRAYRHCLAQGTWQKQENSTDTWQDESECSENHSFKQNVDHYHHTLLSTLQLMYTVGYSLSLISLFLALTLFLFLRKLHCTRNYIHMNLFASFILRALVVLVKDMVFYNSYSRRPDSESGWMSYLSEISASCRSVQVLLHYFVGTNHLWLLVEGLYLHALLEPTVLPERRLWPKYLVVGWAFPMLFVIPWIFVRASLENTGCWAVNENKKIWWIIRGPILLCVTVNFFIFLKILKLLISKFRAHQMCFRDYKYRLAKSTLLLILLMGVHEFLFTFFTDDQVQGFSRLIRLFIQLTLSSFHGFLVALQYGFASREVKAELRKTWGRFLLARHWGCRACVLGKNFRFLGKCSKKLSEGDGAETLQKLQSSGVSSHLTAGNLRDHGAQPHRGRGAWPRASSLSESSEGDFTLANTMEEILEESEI
The experiment in a line: cAMP accumulation assay, functional agonism of mouse GLP2 receptor. Particulars: HEK cells transiently transfected with mouse GLP2 receptor, HTRF cAMP; for Emax: HEK293, read-out: Mouse GLP-2R agonist cAMP Emax; for EC50: read-out: Mouse GLP-2R agonist cAMP pEC50 (converted). The method, then: CAMP production upon agonist stimulation of mouse GLP2 or GLP1 receptors was assessed utilizing HiRange cAMP kit (Cisbio). In brief, HEK cells were transiently transfected for 24 hours with cDNA using GeneJuice Transfection reagent (EMD Millipore) and frozen at −80° C. for later use in the assay. On the day, various concentrations of compounds were dispensed using ECHO-555 (LabCyte) to a total volume of 100 nl into a low volume 384-well Proxi plate (Perkin Elmer) followed by addition of 10 μl of cell suspension delivering 8000 cells per well. Cells were prepared in the assay buffer (HBSS (Lonza) supplemented with 0.5 mM IBMX (Tocris)). After 45 min incubation at 37° C., the reaction was stopped by addition of the HTRF detection reagents in the lysis buffer provided in the kit. Following 1-hour incubation at RT, plates were read on Pherastar FS (BMG Labtech, Inc.) using standard HTRF settings. Dotmatics Studies software was used for calculation of pEC50 values by fitting data to a four-parameter concentration response curve.

The target of the next experiment is T3, human GLP1 receptor (Homo sapiens, UniProt P43220).
T3 construct: expressed in transfected cells; host or cells: HEK cells, BacMam virus transduction
T3 sequence (P43220 24-463): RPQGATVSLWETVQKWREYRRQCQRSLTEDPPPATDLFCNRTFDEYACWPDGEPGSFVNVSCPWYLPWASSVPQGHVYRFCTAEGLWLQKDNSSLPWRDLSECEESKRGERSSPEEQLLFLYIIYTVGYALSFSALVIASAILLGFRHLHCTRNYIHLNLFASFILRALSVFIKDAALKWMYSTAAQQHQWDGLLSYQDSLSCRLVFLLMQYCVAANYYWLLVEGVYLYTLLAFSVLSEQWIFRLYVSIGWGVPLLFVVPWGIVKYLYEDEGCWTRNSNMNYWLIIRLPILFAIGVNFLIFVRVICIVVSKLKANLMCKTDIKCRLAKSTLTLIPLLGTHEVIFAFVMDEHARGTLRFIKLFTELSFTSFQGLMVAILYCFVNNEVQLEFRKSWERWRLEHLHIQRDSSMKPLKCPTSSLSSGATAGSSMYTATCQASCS
The experiment in a line: cAMP accumulation assay, functional agonism of human GLP1 receptor. Particulars: HEK cells infected with human GLP1 receptor BacMam virus, HTRF cAMP; for Emax: HEK293, read-out: Human GLP-1R agonist cAMP Emax; for EC50: read-out: Human GLP-1R agonist cAMP pEC50 (converted). Put shortly: as §1

The term Emax denotes the greatest response seen or fitted, relative to the assay's reference. As for `CCCC[C@H](NC(=O)[C@H](CCC(=O)O)NC(=O)[C@H](CC(=O)O)NC(=O)[C@H](CO)NC(=O)[C@H](Cc1ccccc1)NC(=O)[C@H](CO)NC(=O)CNC(=O)[C@H](CC(=O)O)NC(=O)C(C)(C)NC(=O)[C@@H](N)Cc1c[nH]cn1)C(=O)N[C@H](Cc1ccccc1)C(=O)N[C@H](C(=O)N[C@H](C(=O)N[C@@H](CC(C)C)C(=O)N[C@@H](CC(=O)O)C(=O)N[C@H]1CCCCNC(=O)CC[C@@H](C(=O)N[C@@H](CC(=O)O)C(=O)N[C@@H](Cc2ccccc2)C(=O)N[C@H](C(=O)N[C@@H](CC(N)=O)C(=O)N[C@@H](Cc2c[nH]c3ccccc23)C(=O)N[C@@H](CC(C)C)C(=O)N[C@H](C(=O)N[C@@H](CCC(N)=O)C(=O)N[C@H](C(=O)N[C@@H](CCCCN)C(=O)N[C@H](C(=O)N[C@H](C(=O)N[C@@H](CC(=O)O)C(N)=O)[C@@H](C)O)[C@@H](C)CC)[C@@H](C)O)[C@@H](C)CC)[C@@H](C)CC)NC(=O)[C@H](C)NC(=O)[C@H](C)NC(=O)[C@H](CCCCN)NC1=O)[C@@H](C)CC)[C@@H](C)O` [Example 102] (H-H[Aib]DGSFSDE[Nle][dF]TILDKKAAEDFINWLIQTKITD-NH2; lactam 16-20; N-terminus and C-terminus assumed), the Emax at human GLP2 receptor was found to be 101%; at mouse GLP2 receptor it was 99%; on human GLP1 receptor it was 99.3%. Also, the EC50 is 0.00126 nM on human GLP2 receptor, 0.02 nM on mouse GLP2 receptor and 20 nM at human GLP1 receptor.
As for `CCCC[C@H](NC(=O)[C@H](CCC(=O)O)NC(=O)[C@@H]1CC(=O)NCCCC[C@H](NC(=O)[C@H](CC(=O)O)NC(=O)C(C)(C)NC(=O)[C@@H](N)Cc2c[nH]cn2)C(=O)N[C@@H](CO)C(=O)N[C@@](C)(Cc2ccccc2F)C(=O)N[C@@H](CO)C(=O)N1)C(=O)N[C@H](Cc1ccccc1)C(=O)N[C@H](C(=O)N[C@@](C)(CC(C)C)C(=O)N[C@@H](CC(C)C)C(=O)N[C@@H](CC(=O)O)C(=O)N[C@H]1CCC(=O)NCCCC[C@@H](C(=O)N[C@@H](CC(=O)O)C(=O)N[C@@H](Cc2ccccc2)C(=O)N[C@H](C(=O)N[C@H]2CCC(=O)NCCCC[C@@H](C(=O)N[C@H]3CCC(=O)NCCCC[C@@H](C(N)=O)NC(=O)[C@H]([C@@H](C)O)NC(=O)[C@H]([C@@H](C)CC)NC(=O)[C@H](CCCCN)NC3=O)NC(=O)[C@H]([C@@H](C)CC)NC(=O)[C@H](CC(C)C)NC(=O)[C@H](Cc3c[nH]c4ccccc34)NC2=O)[C@@H](C)CC)NC(=O)[C@H](C)NC(=O)[C@H](C)NC(=O)[C@H](CCCCN)NC1=O)[C@@H](C)O` [Example 64] (H-H[Aib]DKS[αMePhe(2-F)]SDE[Nle][dF]T[αMeL]LDEKAAKDFIEWLIKEKITK-NH2; lactam 4-8, 16-20, 24-28, 29-33; N-terminus and C-terminus assumed), the Emax at human GLP2 receptor stood at 104%; at mouse GLP2 receptor, 99.7%; on human GLP1 receptor, 98%. Further, the EC50 was 0.0398 nM on human GLP2 receptor, 2 nM at mouse GLP2 receptor and 0.0251 nM at human GLP1 receptor.
Consider `CCCC[C@H](NC(=O)[C@H](CCC(=O)O)NC(=O)[C@@H]1CC(=O)NCCCC[C@H](NC(=O)[C@H](CC(=O)O)NC(=O)C(C)(C)C(=O)NCCc2c[nH]cn2)C(=O)N[C@@H](CO)C(=O)N[C@@](C)(Cc2ccccc2F)C(=O)N[C@@H](CO)C(=O)N1)C(=O)N[C@H](Cc1ccccc1)C(=O)N[C@H](C(=O)N[C@@](C)(CC(C)C)C(=O)N[C@@H](CC(C)C)C(=O)N[C@@H](CC(=O)O)C(=O)N[C@H]1CCC(=O)NCCCC[C@@H](C(=O)N[C@@H](CC(=O)O)C(=O)N[C@@H](Cc2ccccc2)C(=O)N[C@H](C(=O)N[C@H]2CCC(=O)NCCCC[C@@H](C(=O)N[C@H]3CCC(=O)NCCCC[C@@H](C(N)=O)NC(=O)[C@H]([C@@H](C)O)NC(=O)[C@H]([C@@H](C)CC)NC(=O)[C@H](CCCCN)NC3=O)NC(=O)[C@H]([C@@H](C)CC)NC(=O)[C@H](CC(C)C)NC(=O)[C@H](Cc3c[nH]c4ccccc34)NC2=O)[C@@H](C)CC)NC(=O)[C@H](C)NC(=O)[C@H](C)NC(=O)[C@H](CCCCN)NC1=O)[C@@H](C)O` [Example 65] ({Malonyl(2,2-Me2,histaminyl)}-DKS[αMePhe(2-F)]SDE[Nle][dF]T[αMeL]LDEKAAKDFIEWLIKEKITK-NH2; lactam 2-6, 14-18, 22-26, 27-31 (inferred); C-terminus assumed), for which the maximum response (Emax) came out at 102% on human GLP2 receptor, 86.3% on mouse GLP2 receptor and 97.9% at human GLP1 receptor. Besides, the EC50 at human GLP2 receptor was 0.0398 nM; on mouse GLP2 receptor, 6.31 nM; on human GLP1 receptor, 0.0398 nM.
Take `CCCC[C@@H]1NC(=O)[C@H](CCC(=O)O)NC(=O)[C@@H](NC(=O)[C@H](CO)NC(=O)[C@](C)(Cc2ccccc2F)NC(=O)[C@H](CO)NC(=O)[C@@H](C)NC(=O)[C@H](Cc2nn[nH]n2)NC(=O)C(C)(C)C(=O)NCCc2c[nH]cn2)CCCCNC(=O)C[C@@H](C(=O)N[C@@](C)(CC(C)C)C(=O)N[C@@H](CC(C)C)C(=O)N[C@@H](CC(=O)O)C(=O)N[C@H]2CCC(=O)NCCCC[C@@H](C(=O)N[C@@H](CC(=O)O)C(=O)N[C@@H](Cc3ccccc3)C(=O)N[C@H](C(=O)N[C@H]3CCCCNC(=O)C[C@@H](C(=O)N[C@H]4CCC(=O)NCCCC[C@@H](C(N)=O)NC(=O)[C@H]([C@@H](C)O)NC(=O)[C@H]([C@@H](C)CC)NC(=O)[C@H](CCCCN)NC4=O)NC(=O)[C@H]([C@@H](C)CC)NC(=O)[C@H](CC(C)C)NC(=O)[C@H](Cc4c[nH]c5ccccc45)NC3=O)[C@@H](C)CC)NC(=O)[C@H](C)NC(=O)[C@H](C)NC(=O)[C@H](CCCCN)NC2=O)NC(=O)[C@@H](Cc2ccccc2)NC1=O` [Example 56] ({Malonyl(2,2-Me2,histaminyl)}-[Ala(1H-tetrazol-5-yl)][dA]S[αMePhe(2-F)]SKE[Nle][dF]D[αMeL]LDEKAAKDFIKWLIDEKITK-NH2; lactam 6-10, 14-18, 22-26, 27-31 (inferred); C-terminus assumed): the maximal effect (Emax) on human GLP2 receptor stood at 103%; at mouse GLP2 receptor it was 98.6%; at human GLP1 receptor, 97.3%. The results for the EC50 on human GLP2 receptor, at mouse GLP2 receptor and on human GLP1 receptor were 0.0126 nM, 0.631 nM and 0.0631 nM, respectively.
